pIC50: −log10 of the molar value.

One may read the pIC50 as −log10 of the IC50, conventionally taken in molar units. The low end stands for a large IC50, the high end for a small IC50.

The experiment deals with MDA-MB-231. Briefly: cells. The following applies: Homo sapiens, MDA-MB-231, 72 h.
Description: Cytotoxicity against human MDA-MB-231 cells after 72 hrs by MTT assay
The compound `CO[C@H]1/C=C\C=C(/C)C(=O)NC2=CC(=O)C(NCCCCCCNC(=O)c3ccncc3)=C(C[C@@H](C)C[C@H](OC)[C@H](O)[C@@H](C)/C=C(\C)[C@@H]1OC(N)=O)C2=O` had a pIC50 of 6.05.
The value for `CO[C@H]1/C=C\C=C(/C)C(=O)NC2=CC(=O)C(NCCCCCCNC(=O)c3ccc(F)cc3)=C(C[C@@H](C)C[C@H](OC)[C@H](O)[C@@H](C)/C=C(\C)[C@@H]1OC(N)=O)C2=O` was 5.38; that for `CO[C@H]1/C=C\C=C(/C)C(=O)NC2=CC(=O)C(NCCCCCCNC(=O)c3cncc(Br)c3)=C(C[C@@H](C)C[C@H](OC)[C@H](O)[C@@H](C)/C=C(\C)[C@@H]1OC(N)=O)C2=O` was 5.63; that for `CO[C@H]1/C=C\C=C(/C)C(=O)NC2=CC(=O)C(NCCCCCCNC(=O)c3cccnc3)=C(C[C@@H](C)C[C@H](OC)[C@H](O)[C@@H](C)/C=C(\C)[C@@H]1OC(N)=O)C2=O` was 6.30.
On to `CO[C@H]1/C=C\C=C(/C)C(=O)NC2=CC(=O)C(NCCCCCCNC(=O)/C=C/c3ccc(OC(F)(F)F)cc3)=C(C[C@@H](C)C[C@H](OC)[C@H](O)[C@@H](C)/C=C(\C)[C@@H]1OC(N)=O)C2=O`, for which the negative logarithm of the IC50 (pIC50) is less than 5.00.
`CO[C@H]1/C=C\C=C(/C)C(=O)NC2=CC(=O)C(NCCCCCCNC(=O)c3ccc(I)cc3)=C(C[C@@H](C)C[C@H](OC)[C@H](O)[C@@H](C)/C=C(\C)[C@@H]1OC(N)=O)C2=O` gave a pIC50 of 5.40.
To `COc1cccc(/C=C/C(=O)NCCCCCCNC2=C3C[C@@H](C)C[C@H](OC)[C@H](O)[C@@H](C)/C=C(\C)[C@H](OC(N)=O)[C@@H](OC)/C=C\C=C(/C)C(=O)NC(=CC2=O)C3=O)c1OC` belongs 5.22; to `CO[C@H]1/C=C\C=C(/C)C(=O)NC2=CC(=O)C(NCCCCNC(=O)c3ccncc3)=C(C[C@@H](C)C[C@H](OC)[C@H](O)[C@@H](C)/C=C(\C)[C@@H]1OC(N)=O)C2=O`, 5.46; to `CO[C@H]1/C=C\C=C(/C)C(=O)NC2=CC(=O)C(NCCCCCCNC(=O)c3ccncn3)=C(C[C@@H](C)C[C@H](OC)[C@H](O)[C@@H](C)/C=C(\C)[C@@H]1OC(N)=O)C2=O`, 6.04.
Take `CO[C@H]1/C=C\C=C(/C)C(=O)NC2=CC(=O)C(NCCCCCCNC(=O)/C=C/c3cccc(Cl)c3)=C(C[C@@H](C)C[C@H](OC)[C@H](O)[C@@H](C)/C=C(\C)[C@@H]1OC(N)=O)C2=O`: the pIC50 is 5.28.
On to `CO[C@H]1/C=C\C=C(/C)C(=O)NC2=CC(=O)C(NCCCCCCNC(=O)/C=C/c3ccc(O)cc3)=C(C[C@@H](C)C[C@H](OC)[C@H](O)[C@@H](C)/C=C(\C)[C@@H]1OC(N)=O)C2=O`, for which the pIC50 was 6.01.
The compound `CO[C@H]1/C=C\C=C(/C)C(=O)NC2=CC(=O)C(NCCCCCCNC(=O)c3ccccc3O)=C(C[C@@H](C)C[C@H](OC)[C@H](O)[C@@H](C)/C=C(\C)[C@@H]1OC(N)=O)C2=O` had a pIC50 of 5.22.
With `CO[C@H]1/C=C\C=C(/C)C(=O)NC2=CC(=O)C(NCCCCCCNC(=O)/C=C/c3ccc(C(F)(F)F)cc3)=C(C[C@@H](C)C[C@H](OC)[C@H](O)[C@@H](C)/C=C(\C)[C@@H]1OC(N)=O)C2=O`, the pIC50 is less than 5.00.
Consider `CO[C@H]1/C=C\C=C(/C)C(=O)NC2=CC(=O)C(NCCCCCCNC(=O)c3ccc(Cl)cc3)=C(C[C@@H](C)C[C@H](OC)[C@H](O)[C@@H](C)/C=C(\C)[C@@H]1OC(N)=O)C2=O`, for which the pIC50 is 5.39.
On to `COc1ccc(OC)c(/C=C/C(=O)NCCCCCCNC2=C3C[C@@H](C)C[C@H](OC)[C@H](O)[C@@H](C)/C=C(\C)[C@H](OC(N)=O)[C@@H](OC)/C=C\C=C(/C)C(=O)NC(=CC2=O)C3=O)c1`, for which the pIC50 is 5.09.
To `COc1ccccc1/C=C/C(=O)NCCCCCCNC1=C2C[C@@H](C)C[C@H](OC)[C@H](O)[C@@H](C)/C=C(\C)[C@H](OC(N)=O)[C@@H](OC)/C=C\C=C(/C)C(=O)NC(=CC1=O)C2=O` belongs 5.48.
To `CO[C@H]1/C=C\C=C(/C)C(=O)NC2=CC(=O)C(NCCCCCCNC(=O)/C=C/c3ccccc3[N+](=O)[O-])=C(C[C@@H](C)C[C@H](OC)[C@H](O)[C@@H](C)/C=C(\C)[C@@H]1OC(N)=O)C2=O` belongs 5.79; to `CO[C@H]1/C=C\C=C(/C)C(=O)NC2=CC(=O)C(NCCCCNC(=O)/C=C/c3ccc(O)cc3)=C(C[C@@H](C)C[C@H](OC)[C@H](O)[C@@H](C)/C=C(\C)[C@@H]1OC(N)=O)C2=O`, 5.78; to `CO[C@H]1/C=C\C=C(/C)C(=O)NC2=CC(=O)C(NCC3CCN(C(=O)c4ccncc4)CC3)=C(C[C@@H](C)C[C@H](OC)[C@H](O)[C@@H](C)/C=C(\C)[C@@H]1OC(N)=O)C2=O`, 5.55.
The value for `CO[C@H]1/C=C\C=C(/C)C(=O)NC2=CC(=O)C(NCCCCCCNC(=O)c3cccs3)=C(C[C@@H](C)C[C@H](OC)[C@H](O)[C@@H](C)/C=C(\C)[C@@H]1OC(N)=O)C2=O` was 5.52; that for `CO[C@H]1/C=C\C=C(/C)C(=O)NC2=CC(=O)C(NCC3CCN(C(=O)c4ccccn4)CC3)=C(C[C@@H](C)C[C@H](OC)[C@H](O)[C@@H](C)/C=C(\C)[C@@H]1OC(N)=O)C2=O` was 5.95; that for `CO[C@H]1/C=C\C=C(/C)C(=O)NC2=CC(=O)C(NCC3CCN(C(=O)c4cccnc4)CC3)=C(C[C@@H](C)C[C@H](OC)[C@H](O)[C@@H](C)/C=C(\C)[C@@H]1OC(N)=O)C2=O` was 5.69.
`CO[C@H]1/C=C\C=C(/C)C(=O)NC2=CC(=O)C(NCCCCCCNC(=O)/C=C/c3cccc([N+](=O)[O-])c3)=C(C[C@@H](C)C[C@H](OC)[C@H](O)[C@@H](C)/C=C(\C)[C@@H]1OC(N)=O)C2=O` gave a pIC50 of 5.99.
The value for `CO[C@H]1/C=C\C=C(/C)C(=O)NC2=CC(=O)C(NCCCCCCNC(=O)c3cc(O)cc(O)c3)=C(C[C@@H](C)C[C@H](OC)[C@H](O)[C@@H](C)/C=C(\C)[C@@H]1OC(N)=O)C2=O` was 5.36; that for `CO[C@H]1/C=C\C=C(/C)C(=O)NC2=CC(=O)C(NCCCCCCNC(=O)/C=C/c3ccccc3)=C(C[C@@H](C)C[C@H](OC)[C@H](O)[C@@H](C)/C=C(\C)[C@@H]1OC(N)=O)C2=O` was 5.29; that for `CO[C@H]1/C=C\C=C(/C)C(=O)NC2=CC(=O)C(NCC3CCN(C(=O)c4ccccc4O)CC3)=C(C[C@@H](C)C[C@H](OC)[C@H](O)[C@@H](C)/C=C(\C)[C@@H]1OC(N)=O)C2=O` was 5.74.
To `COc1ccc(/C=C/C(=O)NCCCCCCNC2=C3C[C@@H](C)C[C@H](OC)[C@H](O)[C@@H](C)/C=C(\C)[C@H](OC(N)=O)[C@@H](OC)/C=C\C=C(/C)C(=O)NC(=CC2=O)C3=O)cc1O` belongs 5.83.
The value for `CO[C@H]1/C=C\C=C(/C)C(=O)NC2=CC(=O)C(NCCCCCCNC(=O)/C=C/c3ccccc3C)=C(C[C@@H](C)C[C@H](OC)[C@H](O)[C@@H](C)/C=C(\C)[C@@H]1OC(N)=O)C2=O` was 5.16; that for `CO[C@H]1/C=C\C=C(/C)C(=O)NC2=CC(=O)C(NCCCCCCNC(=O)/C=C/c3ccc(C)cc3)=C(C[C@@H](C)C[C@H](OC)[C@H](O)[C@@H](C)/C=C(\C)[C@@H]1OC(N)=O)C2=O` was 5.40.
The compound `COc1cc(/C=C/C(=O)NCCCCCCNC2=C3C[C@@H](C)C[C@H](OC)[C@H](O)[C@@H](C)/C=C(\C)[C@H](OC(N)=O)[C@@H](OC)/C=C\C=C(/C)C(=O)NC(=CC2=O)C3=O)cc(OC)c1` gave a pIC50 of 5.77.
To `CO[C@H]1/C=C\C=C(/C)C(=O)NC2=CC(=O)C(NCCCCCCNC(=O)/C=C/c3ccc(N(C)C)cc3)=C(C[C@@H](C)C[C@H](OC)[C@H](O)[C@@H](C)/C=C(\C)[C@@H]1OC(N)=O)C2=O` belongs 5.68.
For the compound `CO[C@H]1/C=C\C=C(/C)C(=O)NC2=CC(=O)C(NCCCCCCNC(=O)/C=C/c3cccc(O)c3)=C(C[C@@H](C)C[C@H](OC)[C@H](O)[C@@H](C)/C=C(\C)[C@@H]1OC(N)=O)C2=O`, the pIC50 was 5.91.
To `CO[C@H]1/C=C\C=C(/C)C(=O)NC2=CC(=O)C(NCCCCNC(=O)c3ccccc3O)=C(C[C@@H](C)C[C@H](OC)[C@H](O)[C@@H](C)/C=C(\C)[C@@H]1OC(N)=O)C2=O` belongs 5.31.
To `CO[C@H]1/C=C\C=C(/C)C(=O)NC2=CC(=O)C(NCCCCCCNC(=O)/C=C/c3cccc(C)c3)=C(C[C@@H](C)C[C@H](OC)[C@H](O)[C@@H](C)/C=C(\C)[C@@H]1OC(N)=O)C2=O` belongs 5.59.
The compound `CO[C@H]1/C=C\C=C(/C)C(=O)NC2=CC(=O)C(NCCCCNC(=O)c3ccccn3)=C(C[C@@H](C)C[C@H](OC)[C@H](O)[C@@H](C)/C=C(\C)[C@@H]1OC(N)=O)C2=O` had a pIC50 of 5.50.
To `CO[C@H]1/C=C\C=C(/C)C(=O)NC2=CC(=O)C(NCCCCNC(=O)c3nc(C)c(C)nc3C)=C(C[C@@H](C)C[C@H](OC)[C@H](O)[C@@H](C)/C=C(\C)[C@@H]1OC(N)=O)C2=O` belongs 5.07.
Regarding `CO[C@H]1/C=C\C=C(/C)C(=O)NC2=CC(=O)C(NCCCCNC(=O)c3cccnc3)=C(C[C@@H](C)C[C@H](OC)[C@H](O)[C@@H](C)/C=C(\C)[C@@H]1OC(N)=O)C2=O`, the pIC50 was 5.39.
`CO[C@H]1/C=C\C=C(/C)C(=O)NC2=CC(=O)C(NCC3CCN(C(=O)c4cnc(C)c(C)n4)CC3)=C(C[C@@H](C)C[C@H](OC)[C@H](O)[C@@H](C)/C=C(\C)[C@@H]1OC(N)=O)C2=O` showed a pIC50 of 5.63.
To `CO[C@H]1/C=C\C=C(/C)C(=O)NC2=CC(=O)C(NCCCCCCNC(=O)c3ccccc3Cl)=C(C[C@@H](C)C[C@H](OC)[C@H](O)[C@@H](C)/C=C(\C)[C@@H]1OC(N)=O)C2=O` belongs 5.47; to `CO[C@H]1/C=C\C=C(/C)C(=O)NC2=CC(=O)C(NCCCCCCNC(=O)/C=C/c3ccc(O)c(O)c3)=C(C[C@@H](C)C[C@H](OC)[C@H](O)[C@@H](C)/C=C(\C)[C@@H]1OC(N)=O)C2=O`, 5.41; to `CO[C@H]1/C=C\C=C(/C)C(=O)NC2=CC(=O)C(NCCCCCCNC(=O)c3cncnc3)=C(C[C@@H](C)C[C@H](OC)[C@H](O)[C@@H](C)/C=C(\C)[C@@H]1OC(N)=O)C2=O`, 5.91.
On to `COc1ccc(/C=C/C(=O)NCCCCCCNC2=C3C[C@@H](C)C[C@H](OC)[C@H](O)[C@@H](C)/C=C(\C)[C@H](OC(N)=O)[C@@H](OC)/C=C\C=C(/C)C(=O)NC(=CC2=O)C3=O)c(OC)c1OC`, for which the pIC50 was 5.73.
With `CO[C@H]1/C=C\C=C(/C)C(=O)NC2=CC(=O)C(NCCCCCCNC(=O)c3ccc([N+](=O)[O-])cc3)=C(C[C@@H](C)C[C@H](OC)[C@H](O)[C@@H](C)/C=C(\C)[C@@H]1OC(N)=O)C2=O`, the pIC50 was 5.53.

Source of the values: ChEMBL document CHEMBL3352031, “Discovery of diamine-linked 17-aroylamido-17-demethoxygeldanamycins as potent Hsp90 inhibitors” (Eur J Med Chem, 2014).
